Reference: US20020052295A1, “Diacyl derivatives of propylene diamine having herbicidal activity” (priority 1999, published 2002)

Tests used:
ABUTH = experiment: Pre-emergence herbicidal activity on ABUTH (velvetleaf); assay type: in vivo, Abutilon theophrasti
How it was run: (§1)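 Seeds sown on sterilized fertilized topsoil and covered, then compound in organic solvent diluted with 50:50 acetone/water applied to soil surface; greenhouse at 30/21° C. day/night with 0.64 cm overhead irrigation. Percent inhibition versus untreated plants scored about 14 days after treatment; GR80 derived, highest rate typically 1000 g/ha.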

SOLNI = experiment: Pre-emergence herbicidal activity on SOLNI (black nightshade); assay type: in vivo, Solanum nigrum
How it was run: as §1

AMARE = experiment: Pre-emergence herbicidal activity on AMARE (redroot pigweed); assay type: in vivo, Amaranthus retroflexus
How it was run: as §1

DATST = experiment: Pre-emergence herbicidal activity on DATST (jimsonweed); assay type: in vivo, Datura stramonium
How it was run: as §1

CHEAL = experiment: Pre-emergence herbicidal activity on CHEAL (common lambsquarters); assay type: in vivo, Chenopodium album
How it was run: as §1

CONAR = experiment: Pre-emergence herbicidal activity on CONAR (field bindweed); assay type: in vivo, Convolvulus arvensis
How it was run: as §1

POROL = experiment: Pre-emergence herbicidal activity on POROL (common purslane); assay type: in vivo, Portulaca oleracea
How it was run: as §1

CIRAR = experiment: Pre-emergence herbicidal activity on CIRAR (canada thistle, seedling); assay type: in vivo, Cirsium arvense
How it was run: as §1

ECHCG = experiment: Pre-emergence herbicidal activity on ECHCG (barnyardgrass); assay type: in vivo, Echinochloa crus-galli; conditions: racemic mixture vs enantiomers test; rates tested 1000, 650, 300, 200, 100, 65, 30 and 10 g/ha; lowest rate with 80% or greater inhibition
How it was run: as §1

PANMI = experiment: Pre-emergence herbicidal activity on PANMI (wild proso millet); assay type: in vivo, Panicum miliaceum
How it was run: as §1

SORHA = experiment: Pre-emergence herbicidal activity on SORHA (johnsongrass, seedling); assay type: in vivo, Sorghum halepense
How it was run: as §1

SETFA = experiment: Pre-emergence herbicidal activity on SETFA (giant foxtail); assay type: in vivo, Setaria faberi
How it was run: as §1

PANDI = experiment: Pre-emergence herbicidal activity on PANDI (fall panicum); assay type: in vivo, Panicum dichotomiflorum
How it was run: as §1

SORVU = experiment: Pre-emergence herbicidal activity on SORVU (shattercane); assay type: in vivo, Sorghum vulgare; conditions: racemic mixture vs enantiomers test; rates tested 1000, 650, 300, 200, 100, 65, 30 and 10 g/ha; lowest rate with 80% or greater inhibition
How it was run: as §1

BRAPP = experiment: Pre-emergence herbicidal activity on BRAPP (broadleaf signalgrass); assay type: in vivo, Brachiaria platyphylla
How it was run: as §1

DIGSA = experiment: Pre-emergence herbicidal activity on DIGSA (large crabgrass); assay type: in vivo, Digitaria sanguinalis
How it was run: as §1

dicotyledonous species = experiment: Pre-emergence test (later test), average GR80 on dicotyledonous species; assay type: in vivo; conditions: average over dicotyledonous species
Text: (§2) All such uses, and the biological activity enabling such uses, are embraced by the term “herbicidal” herein. Tables 15 and 16 summarize results of tests conducted as described below to determine the pre-emergence herbicidal activity, in the form of a GR80 value, of illustrative compounds of this invention. […] Where herbicidal activity was evident but 80% inhibition was not achieved at the highest rate tested (typically 1000 g/ha), an asterisk (*) is shown in the following tables. Herbicidal activity evident in the form of symptoms of phytotoxicity, in the absence of at least 80% inhibition at any rate, is indicated in the tables by “phyto”. A blank cell in the following tables indicates no herbicidal or phytotoxic response at any rate tested.
(§3) The pre-emergence tests were conducted by the following procedure. Topsoil was sieved to pass through a 1.27 cm screen. Fertilizer was added to the topsoil and the mixture was then sterilized by heating. The topsoil mixture was placed in a pot and compacted to a depth of 1.0 to 1.25 cm from the top of the pot. Seeds of each of several monocotyledonous and dicotyledonous annual plant species were placed on top of the soil. […]
(§4) Approximately 14 days after planting and treating, the plants were observed and herbicidal efficacy recorded as percent inhibition by comparison with untreated plants. […]

monocotyledonous species = experiment: Pre-emergence test (later test), GR80 on monocotyledonous species; assay type: in vivo; conditions: average over monocotyledonous species
Text: as §2, §3, §4

[1] = system: monocotyledonous and dicotyledonous annual plant species; experiment: Greenhouse pre-emergence test, all species of the test taken together; assay type: in vivo
Text: All such uses, and the biological activity enabling such uses, are embraced by the term “herbicidal” herein. […] Where herbicidal activity was evident but 80% inhibition was not achieved at the highest rate tested (typically 1000 g/ha), an asterisk (*) is shown in the following tables. Herbicidal activity evident in the form of symptoms of phytotoxicity, in the absence of at least 80% inhibition at any rate, is indicated in the tables by “phyto”. A blank cell in the following tables indicates no herbicidal or phytotoxic response at any rate tested.
The pre-emergence tests were conducted by the following procedure. Topsoil was sieved to pass through a 1.27 cm screen. Fertilizer was added to the topsoil and the mixture was then sterilized by heating. The topsoil mixture was placed in a pot and compacted to a depth of 1.0 to 1.25 cm from the top of the pot. Seeds of each of several monocotyledonous and dicotyledonous annual plant species were placed on top of the soil. Additional soil was subsequently placed over the seeds to level-fill the pot. A known amount of each test compound dissolved or suspended in an appropriate organic solvent was diluted with a 50:50 mix of acetone and water and applied to the surface of the soil. After treatment the plants were placed in a greenhouse with a 30/21° C. day/night temperature regime where they received 0.64 cm of overhead irrigation. All subsequent watering consisted of a light overhead mist and/or subirrigation as needed for germination and growth.
Pre-emergence herbicidal activity of the compound of Example 5, a racemic mixture of R- and S-enantiomers of N,N′-(1,2-propanediylbis)-3-(trifluoromethyl) benzamide, was compared with that of the individual R- and S-enantiomers, the compounds of Examples 5a and 5b respectively. The procedure was exactly as described above. Rates tested were 1000, 650, 300, 200, 100, 65, 30 and 10 g/ha.
In a greenhouse pre-emergence test conducted according to the procedure described hereinabove, R—N,N′-(1,2-propanediylbis)-3-(trifluoromethyl)benzamide (the compound of Example 5a) was applied at 200 g/ha and acetochlor was applied at 100 g/ha, both individually and in combination.
In the same greenhouse pre-emergence test, R-2-fluoro-3-trifluoromethyl-N-[1-methyl-2-(3-trifluoromethyl)phenylcarbonylamino]ethylbenzamide (the compound of Example 13) was applied at 100 g/ha and acetochlor was applied at 100 g/ha, both individually and in combination.

corn (maize) = experiment: Field trials, crop selectivity in corn; assay type: in vivo; conditions: pre-emergence rates giving acceptable weed control
sorghum = experiment: Field trials, crop selectivity in sorghum; assay type: in vivo; conditions: pre-emergence rates giving acceptable weed control
soybeans = experiment: Field trials, crop selectivity in soybeans; assay type: in vivo; conditions: pre-emergence rates giving acceptable weed control
[2] = system: several weed species, predominantly dicotyledonous species; experiment: Field trials, pre-emergence weed control; assay type: in vivo; conditions: pre-emergence application
cotton = conditions: field trials; pre-emergence
rice = conditions: field trials; pre-emergence
[3] = pre-emergence application, Example 5a 200 g/ha alone
[4] = racemic mixture vs enantiomers test, rates tested 1000, 650, 300, 200, 100, 65, 30 and 10 g/ha, lowest rate with 80% or greater inhibition

Compound: C[C@H](CNC(=O)c1cccc(C(F)(F)F)c1)NC(=O)c1cccc(C(F)(F)F)c1 [Example 5a, R—N,N′-(1,2-propanediylbis)-3-(trifluoromethyl)benzamide]
- Percent control ABUTH (ABUTH; [3]): 8%
- Pre-emergence activity (GR80) ABUTH (ABUTH; [4]): 650 g/ha
- Percent control SOLNI (SOLNI; [3]): 100%
- Pre-emergence activity (GR80) SOLNI (SOLNI; [4]): 200 g/ha
- Percent control AMARE (AMARE; [3]): 100%
- Pre-emergence activity (GR80) AMARE (AMARE; [4]): 30 g/ha
- Percent control DATST (DATST; [3]): 41%
- Pre-emergence activity (GR80) DATST (DATST; [4]): 650 g/ha
- Percent control CHEAL (CHEAL; [3]): 100%
- Pre-emergence activity (GR80) CHEAL (CHEAL; [4]): 65 g/ha
- Percent control CONAR (CONAR; [3]): 22%
- Pre-emergence activity (GR80) CONAR (CONAR; [4]): phyto
- Percent control POROL (POROL; [3]): 100%
- Pre-emergence activity (GR80) PORAL (POROL; [4]): 30 g/ha
- Percent control CIRAR (CIRAR; [3]): 35%
- Pre-emergence activity (GR80) CIRAR (CIRAR; [4]): 1000 g/ha
- Pre-emergence activity (GR80) ECHCG (ECHCG): phyto
- Percent control PANMI (PANMI; [3]): 20%
- Pre-emergence activity (GR80) PANMI (PANMI; [4]): 300 g/ha
- Percent control SORHA (SORHA; [3]): 30%
- Pre-emergence activity (GR80) SORHA (SORHA; [4]): phyto
- Percent control SETFA (SETFA; [3]): 40%
- Pre-emergence activity (GR80) SETFA (SETFA; [4]): phyto
- Percent control PANDI (PANDI; [3]): 55%
- Pre-emergence activity (GR80) PANDI (PANDI; [4]): 200 g/ha
- Pre-emergence activity (GR80) SORVU (SORVU): [empty]
- Percent control BRAPP (BRAPP; [3]): 15%
- Pre-emergence activity (GR80) BRAPP (BRAPP; [4]): phyto
- Percent control DIGSA (DIGSA; [3]): 82%
- Pre-emergence activity (GR80) DIGSA (DIGSA; [4]): 65 g/ha
- average pre-emergence GR80 on dicotyledonous species (dicotyledonous species): 235 g/ha
- pre-emergence GR80 on monocotyledonous species (monocotyledonous species): 711 g/ha
- herbicidal activity of the combination compared with expectation ([1]; Example 5a 200 g/ha + acetochlor 100 g/ha, at least on ABUTH, DATST, SORHA and PANMI): greater than expected herbicidal activity
- number of the 14 species showing >85% control ([1]; Example 5a 200 g/ha in combination with acetochlor 100 g/ha): 11
- number of the 14 species showing >85% control ([1]; Example 5a alone at 200 g/ha): 4
- GR80 values relative to those of the racemic mixture ([1]; typical over species of Tables 19 and 20): about one-half
- crop injury, corn (maize) (corn (maize)): not injurious
- crop injury, sorghum (sorghum): not injurious
- crop injury, soybeans (soybeans): not injurious
- weed control in field trials [2]: acceptable control
- crop selectivity, cotton (cotton): not to be adequately selective
- crop selectivity, rice (rice): not to be adequately selective
